Assay results taken from ChEMBL document CHEMBL4382205, “Tryptophan 2,3-dioxygenase inhibitory activities of tryptanthrin derivatives” (Eur J Med Chem, 2018).

How the values were obtained:
[1] = target: T1, Tryptophan 2,3-dioxygenase (Homo sapiens, UniProt P48775); experiment: Inhibition of recombinant full length C-terminal His-tagged human TDO expressed in Escherichia coli using L-Trp as substrate after 30 mins
[2] = target: T1, Tryptophan 2,3-dioxygenase; experiment: Inhibition of TDO (unknown origin) expressed in HEK293 cells using L-Trp as substrate after 8 hrs; type: cell-based
[3] = target: T1, Tryptophan 2,3-dioxygenase; experiment: Mixed type […] inhibition of recombinant full length C-terminal His-tagged human TDO expressed in Escherichia coli using L-Trp as substrate after 30 mins by Dixon plot analysis
[4] = target: T1, Tryptophan 2,3-dioxygenase; experiment: Inhibition of TDO in human U87 MG cells using L-Trp as substrate after 8 hrs; type: cell-based, U-87MG ATCC
[5] = target: T1, Tryptophan 2,3-dioxygenase; experiment: Uncompetitive inhibition of recombinant full length C-terminal His-tagged human TDO expressed in Escherichia coli using L-Trp as substrate after 30 mins by Dixon plot analysis
[6] = species: Homo sapiens; experiment: Selectivity ratio of IC50 for IDO1 (unknown origin) to IC50 for recombinant full length C-terminal His-tagged human TDO
[7] = target: Indoleamine 2,3-dioxygenase 1 (Homo sapiens, UniProt P14902); experiment: Inhibition of IDO1 (unknown origin)
[8] = target: T1, Tryptophan 2,3-dioxygenase; experiment: Inhibition of TDO (unknown origin)

T1 sequence (P48775 whole entry): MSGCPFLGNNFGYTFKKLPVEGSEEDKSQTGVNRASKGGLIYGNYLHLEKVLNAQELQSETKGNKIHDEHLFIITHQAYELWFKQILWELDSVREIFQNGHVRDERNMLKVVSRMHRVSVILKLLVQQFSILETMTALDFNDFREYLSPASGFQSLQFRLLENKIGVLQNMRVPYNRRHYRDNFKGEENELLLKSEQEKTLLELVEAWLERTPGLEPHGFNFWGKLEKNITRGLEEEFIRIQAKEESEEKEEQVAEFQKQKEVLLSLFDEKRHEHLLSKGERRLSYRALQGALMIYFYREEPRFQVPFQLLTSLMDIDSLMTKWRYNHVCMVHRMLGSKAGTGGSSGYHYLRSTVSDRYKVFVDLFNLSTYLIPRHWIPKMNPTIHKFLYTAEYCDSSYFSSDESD
Sequence of Indoleamine 2,3-dioxygenase 1 (P14902 whole entry): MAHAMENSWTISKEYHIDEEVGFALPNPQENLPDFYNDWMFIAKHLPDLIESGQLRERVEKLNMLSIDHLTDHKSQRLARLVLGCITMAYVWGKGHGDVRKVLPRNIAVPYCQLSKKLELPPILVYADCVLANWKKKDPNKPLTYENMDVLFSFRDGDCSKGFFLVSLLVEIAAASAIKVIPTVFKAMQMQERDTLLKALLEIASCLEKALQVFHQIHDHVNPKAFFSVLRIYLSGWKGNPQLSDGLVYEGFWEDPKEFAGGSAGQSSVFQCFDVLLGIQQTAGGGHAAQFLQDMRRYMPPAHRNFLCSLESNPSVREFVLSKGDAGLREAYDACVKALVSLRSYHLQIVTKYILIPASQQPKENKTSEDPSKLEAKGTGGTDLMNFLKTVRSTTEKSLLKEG

IC50 [1] [nM]	IC50 [2] [nM]	Ki [3] [nM]	IC50 [4] [nM]	Ki [5] [nM]	Ratio IC50 [6]	Ki [7] [nM]	Ki [8] [nM]	SMILES
1490	59	1000	62	–	–	–	–	O=C1c2cc(F)ccc2-n2c1nc1ccc(F)cc1c2=O
937	68	–	60	336	–	–	–	O=C1c2cc(F)ccc2-n2c1nc1ccccc1c2=O
64500	242	–	260	21700	–	–	–	NS(=O)(=O)NCCNc1nonc1C(=NO)Nc1ccc(F)c(Br)c1 [EPACADOSTAT]
3230	215	834	184	–	38	–	–	Cc1ccc2c(c1)C(=O)c1nc3ccccc3c(=O)n1-2
44800	229	–	227	8410	–	–	–	O=C1c2c(Cl)cccc2-n2c1nc1ccccc1c2=O
101	61	–	40	215	–	–	–	O=C1c2cc([N+](=O)[O-])ccc2-n2c1nc1ccccc1c2=O
3940	140	–	194	581	–	–	–	O=C1c2ccccc2-n2c1nc1ccccc1c2=O [TRYPTANTHRIN]
–	–	–	–	–	–	> 100000	16000	O=C1c2cc(O)c(O)cc2OC(c2ccc(O)c(O)c2)C1O (centres undefined)
9810	241	876	503	–	88	–	–	O=C1c2ccccc2-n2c1nc1ccc(F)cc1c2=O
224000	733	42700	957	–	–	–	–	O=C1c2ccc(Cl)cc2-n2c1nc1ccccc1c2=O
937	53	–	54	356	–	–	–	O=C1c2cc(Br)ccc2-n2c1nc1ccccc1c2=O
